Measurements taken from ChEMBL document CHEMBL3808273, “Steroids from the rhizome of Anemarrhena asphodeloides and their cytotoxic activities” (Bioorg Med Chem Lett, 2016).

Key:
Bcap37 = assay: Cytotoxicity against human Bcap37 cells assessed as growth inhibition after 48 hrs by MTT assay; format: functional, cell-based; conditions: Bcap37, 48 h
[1] = Cytotoxicity against human Hep3B cells assessed as growth inhibition after 48 hrs by MTT assay; format: functional, cell-based, Hep 3B2
MCF7 = assay: Cytotoxicity against human MCF7 cells assessed as growth inhibition after 48 hrs by MTT assay; format: functional, cell-based; conditions: MCF7, 48 h
HepG2 = assay: Cytotoxicity against human HepG2 cells assessed as growth inhibition after 48 hrs by MTT assay; format: functional, cell-based; conditions: HepG2, 48 h
A549 = assay: Cytotoxicity against human A549 cells assessed as growth inhibition after 48 hrs by MTT assay; format: functional, cell-based; conditions: A549, 48 h

SMILES	IC50 (Bcap37)	IC50 [1]	IC50 (MCF7)	IC50 (HepG2)	IC50 (A549)
C[C@@H](CCC1(O)O[C@H]2C[C@H]3[C@@H]4CC[C@H]5C[C@@H](O)CC[C@]5(C)[C@H]4CC[C@]3(C)[C@H]2[C@@H]1C)CO[C@@H]1O[C@H](CO)[C@@H](O)[C@H](O)[C@H]1O (some centres not stated)	> 50 µM	> 50 µM	> 50 µM	> 50 µM	> 50 µM
C[C@H]1CC[C@@]2(OC1)O[C@H]1C[C@H]3[C@@H]4CC[C@H]5C[C@@H](O)CC[C@]5(C)[C@H]4CC[C@]3(C)[C@H]1[C@@H]2C	> 50 µM	> 50 µM	> 50 µM	> 50 µM	> 50 µM
C[C@@H]1C(=O)O[C@H]2C[C@H]3[C@@H]4CC[C@H]5C[C@@H](O)[C@@H](O)C[C@]5(C)[C@H]4CC[C@]3(C)[C@H]21	> 50 µM	> 50 µM	> 50 µM	> 50 µM	> 50 µM
C=C1CC[C@@]2(OC1)O[C@H]1C[C@H]3[C@@H]4CC[C@H]5C[C@@H](O[C@@H]6O[C@H](CO)[C@H](O)[C@H](O)[C@H]6O[C@@H]6O[C@H](CO)[C@@H](O)[C@H](O)[C@H]6O)CC[C@]5(C)[C@H]4CC[C@]3(C)[C@H]1[C@@H]2C	7.72 µM	9.98 µM	13.1 µM	6.47 µM	5.62 µM
C[C@@H]1C(=O)O[C@H]2C[C@H]3[C@@H]4CC[C@H]5C[C@@H](O[C@@H]6O[C@H](CO)[C@H](O)[C@H](O)[C@H]6O[C@@H]6O[C@H](CO)[C@@H](O)[C@H](O)[C@H]6O)CC[C@]5(C)[C@H]4CC[C@]3(C)[C@H]21	> 50 µM	> 50 µM	> 50 µM	> 50 µM	> 50 µM
CC(=O)C1=C[C@H](O)[C@H]2[C@@H]3CC[C@H]4C[C@@H](O[C@@H]5O[C@H](CO)[C@H](O)[C@H](O)[C@H]5O[C@@H]5O[C@H](CO)[C@@H](O)[C@H](O)[C@H]5O)CC[C@]4(C)[C@H]3CC[C@]12C	> 50 µM	> 50 µM	> 50 µM	> 50 µM	> 50 µM
C[C@@H]1CC[C@]2(OC1)O[C@@H]1[C@@H](O)[C@@H]3[C@H]4CC[C@@H]5C[C@H](O[C@H]6O[C@@H](CO)[C@@H](O)[C@@H](O)[C@@H]6O[C@H]6O[C@@H](CO)[C@H](O)[C@@H](O)[C@@H]6O)CC[C@@]5(C)[C@@H]4CC[C@@]3(C)[C@@H]1[C@H]2C	> 50 µM	> 50 µM	> 50 µM	> 50 µM	> 50 µM
C[C@@H]1CO[C@]2(O[C@@H]3C[C@@H]4[C@H]5CC[C@@H]6C[C@H](O[C@H]7O[C@@H](CO)[C@@H](O)[C@@H](O)[C@@H]7O[C@H]7O[C@@H](CO)[C@H](O)[C@@H](O)[C@@H]7O)CC[C@@]6(C)[C@@H]5CC[C@@]4(C)[C@@H]3[C@H]2C)[C@H](O)C1	> 50 µM	> 50 µM	> 50 µM	> 50 µM	> 50 µM
C[C@@H]1CC[C@@]2(OC1)O[C@H]1C[C@H]3[C@@H]4CC[C@H]5C[C@@H](O[C@H]6O[C@@H](CO)[C@@H](O)[C@@H](O)[C@@H]6O[C@H]6O[C@@H](CO)[C@H](O)[C@@H](O)[C@@H]6O)[C@@H](O)C[C@]5(C)[C@H]4CC[C@]3(C)[C@H]1[C@@H]2C	> 50 µM	> 50 µM	> 50 µM	> 50 µM	> 50 µM
C[C@H]1CC[C@@]2(OC1)O[C@H]1C[C@H]3[C@@H]4CC[C@H]5C[C@@H](O[C@@H]6O[C@H](CO)[C@H](O)[C@H](O)[C@H]6O[C@@H]6O[C@H](CO)[C@@H](O)[C@H](O)[C@H]6O)CC[C@]5(C)[C@H]4CC[C@]3(C)[C@H]1[C@@H]2C	5.37 µM	0.35 µM	20.5 µM	4.64 µM	7.33 µM
C[C@H]1CC[C@@]2(OC1)O[C@H]1C[C@H]3[C@@H]4CC[C@H]5C[C@@H](OC6O[C@H](CO)[C@@H](O)[C@H](O)[C@@H]6O[C@@H]6O[C@H](CO)[C@@H](O)[C@H](O)[C@H]6O)CC[C@]5(C)[C@H]4CC[C@]3(C)[C@H]1[C@@H]2C (some centres not stated)	9.5 µM	13.8 µM	25.5 µM	6.42 µM	8.42 µM
O=c1[nH]cc(F)c(=O)[nH]1 [FLUOROURACIL]	5.18 µM	23 µM			
